Key:
[1] = target: human cathepsin K (UniProt P43236); assay: Cathepsin K Assay (hrbCat K); format: biochemical; conditions: Z-Leu-Arg-AMC substrate, pH 5.5, 15 min preincubation; read-out: hrbCat K (IP (nM))
Summary of the method: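 Human cathepsin K (0.4 nM) was preincubated 15 min at room temperature with compound in 50 mM MES pH 5.5, 2.5 mM EDTA, 2.5 mM DTT and 10% DMSO. Inhibition was fitted to a dose-response model.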

[2] = target: T1, human cathepsin F (Homo sapiens, UniProt Q9UBX1); assay: Cathepsin F assay (hCat F); format: biochemical; conditions: Z-Phe-Arg-AMC substrate, pH 5.5, 15 min preincubation; read-out: hCat F (IP (nM))
T1 sequence (Q9UBX1 271-484): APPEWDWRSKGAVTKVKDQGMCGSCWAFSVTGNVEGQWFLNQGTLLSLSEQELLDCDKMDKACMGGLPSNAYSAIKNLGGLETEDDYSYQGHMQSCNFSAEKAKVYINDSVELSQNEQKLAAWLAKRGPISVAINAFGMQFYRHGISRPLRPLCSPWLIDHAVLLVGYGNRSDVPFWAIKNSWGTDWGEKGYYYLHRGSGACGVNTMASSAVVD
Summary of the method: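 Enzyme (10 nM) was preincubated 15 min at room temperature with compounds (1/3 DMSO dilution series, 500–0.025 μM) in 50 mM MES pH 5.5, 2.5 mM EDTA, 2.5 mM DTT, 10% DMSO. Z-Phe-Arg-AMC (8 μM) was added and AMC fluorescence (Ex 360/Em 460 nm) followed for 20 min. % inhibition was fitted to dose-response curves.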

Row | SMILES | IC50 [1] | IC50 [2]
1 | N#CC1(NC(=O)[C@@H]2CCCC[C@H]2c2nc(-c3ncc(F)cc3F)sc2-c2ccc(N3CCS(=O)(=O)CC3)cc2)CC1 [Example 65, (1R,2R)-N-(1-cyanocyclopropyl)-2-(2-(3,5-difluoropyridin-2-yl)-5-(4-(1,1-dioxidothiomorpho-lino)phenyl)thiazol-4-yl)cyclohexane-carboxamide] | 7 nM | 1000 nM
2 | N#Cc1cccc(-c2nc([C@@H]3CCCC[C@H]3C(=O)NC3(C#N)CC3)c(-c3ccc(N4CCS(=O)(=O)CC4)cc3)s2)c1 [Example 66, (1R,2R)-N-(1-cyanocyclopropyl)-2-(2-(3-cyanophenyl)-5-(4-(1,1-dioxidothiomorpho-lino)phenyl)thiazol-4-yl)cyclohexane-carboxamide] | 2 nM | 1410 nM
3 | Cc1ccc(-c2nc([C@@H]3CCCC[C@H]3C(=O)NC3(C#N)CC3)c(-c3ccc(N4CCS(=O)(=O)CC4)cc3)s2)c(C#N)c1 [Example 67, (1R,2R)-2-(2-(2-cyano-4-methylphenyl)-5-(4-(1,1-dioxidothiomorpho-lino)phenyl)thiazol-4-yl)-N-(1-cyanocyclopropyl) cyclohexanecarbox-amide] | 5.8 nM | ≥ 10000 nM
4 | N#CC1(NC(=O)[C@@H]2C[C@@H](F)CC[C@H]2c2nc(-c3cncc(Cl)c3)sc2-c2ccc(N3CCS(=O)(=O)CC3)cc2)CC1 [Example 68, (1R,2R,5S)-2-(2-(5-chloropyridin-3-yl)-5-(4-(1,1-dioxidothiomorpho-lino)phenyl)thiazol-4-yl)-N-(1-cyanocyclopropyl)-5-fluorocyclohexane-carboxamide] | 1.7 nM | 2310 nM
5 | N#CC1(NC(=O)[C@@H]2C[C@@H](F)CC[C@H]2c2nc(-c3ccc(F)cn3)sc2-c2ccc(N3CCS(=O)(=O)CC3)cc2)CC1 [Example 69, (1R,2R,5S)-N-(1-cyanocyclopropyl)-2-(5-(4-(1,1-dioxidothiomorpho-lino)phenyl)-2-(5-fluoropyridin-2-yl)thiazol-4-yl)-5-fluorocyclohexane-carboxamide] | 1.2 nM | 2600 nM
6 | N#CC1(NC(=O)[C@@H]2CCCC[C@H]2c2nc(-c3ncccn3)sc2-c2ccc(N3CCS(=O)(=O)CC3)cc2)CC1 [Example 70, (1R,2R)-N-(1-cyanocyclopropyl)-2-(5-(4-(1,1-dioxidothiomorpho-lino)phenyl)-2-(pyrimidin-2-yl)thiazol-4-yl)cyclohexane-carboxamide] | 27.1 nM | ≥ 10000 nM
7 | N#CC1(NC(=O)[C@@H]2CCCC[C@H]2c2nc(-c3cnc(N)nc3)sc2-c2ccc(N3CCS(=O)(=O)CC3)cc2)CC1 [Example 71, (1R,2R)-2-(2-(2-aminopyrimidin-5-yl)-5-(4-(1,1-dioxidothiomorpho-lino)phenyl)thiazol-4-yl)-N-(1-cyanocyclopropyl) cyclohexanecarbox-amide] | 2.3 nM | 2320 nM
8 | N#CC1(NC(=O)[C@@H]2CCCC[C@H]2c2nc(-c3cccnc3)sc2-c2ccc(N3CCS(=O)(=O)C4(CC4)C3)cc2)CC1 [Example 72, (1R,2R)-N-(1-cyanocyclopropyl)-2-(5-(4-(4,4-dioxido-4-thia-7-azaspiro[2.5]octan-7-yl)phenyl)-2-(pyridin-3-yl)thiazol-4-yl)cyclohexane-carboxamide] | 2.3 nM | 2150 nM
9 | CS(=O)(=O)C1CN(c2ccc(-c3sc(-c4cccnc4)nc3[C@@H]3CCCC[C@H]3C(=O)NC3(C#N)CC3)cc2)C1 [Example 73, (1R,2R)-N-(1-cyanocyclopropyl)-2-(5-(4-(3-(methylsulfonyl)azetidin-1-yl)phenyl)-2-(pyridin-3-yl)thiazol-4-yl)cyclohexane-carboxamide] | 2.2 nM | 1200 nM
10 | N#CC1(NC(=O)[C@@H]2CCCC[C@H]2c2nc(-c3cncc(F)c3)sc2-c2ccc(N3CCS(=O)(=O)C4(CC4)C3)cc2)CC1 [Example 74, (1R,2R)-N-(1-cyanocyclopropyl)-2-(5-(4-(4,4-dioxido-4-thia-7-azaspiro[2.5]octan-7-yl)phenyl)-2-(5-fluoropyridin-3-yl)thiazol-4-yl)cyclohexane-carboxamide] | 1.9 nM | 1370 nM
11 | CS(=O)(=O)C1CN(c2ccc(-c3sc(-c4cncc(F)c4)nc3[C@@H]3CCCC[C@H]3C(=O)NC3(C#N)CC3)cc2)C1 [Example 75, (1R,2R)-N-(1-cyanocyclopropyl)-2-(2-(5-fluoropyridin-3-yl)-5-(4-(3-(methylsulfonyl)azetidin-1-yl)phenyl)thiazol-4-yl)cyclohexane-carboxamide] | 1.5 nM | 867 nM
12 | N#CC1(NC(=O)[C@@H]2CCCC[C@H]2c2nc(-c3cncc(Cl)c3)sc2-c2ccc(N3CCS(=O)(=O)C4(CC4)C3)cc2)CC1 [Example 76, (1R,2R)-2-(2-(5-chloropyridin-3-yl)-5-(4-(4,4-dioxido-4-thia-7-azaspiro[2.5]octan-7-yl)phenyl)thiazol-4-yl)-N-(1-cyanocyclopropyl) cyclohexanecarbox-amide] | 1.8 nM | 1000 nM
13 | Cc1ncc(-c2nc([C@@H]3CCCC[C@H]3C(=O)NC3(C#N)CC3)c(-c3ccc(N4CCS(=O)(=O)CC4)cc3)s2)cn1 [Example 77, (1R,2R)-N-(1-cyanocyclopropyl)-2-(5-(4-(1,1-dioxidothiomorpho-lino)phenyl)-2-(2-methylpyrimidin-5-yl)thiazol-4-yl)cyclohexane-carboxamide] | 1.6 nM | 1870 nM
14 | N#CC1(NC(=O)[C@@H]2CCC(F)(F)C[C@H]2c2nc(-c3ccc(F)cc3)sc2-c2ccc(N3CCS(=O)(=O)CC3)cc2)CC1 [Example 78, (1R,2R)-N-(1-cyanocyclopropyl)-2-(5-(4-(1,1-dioxidothiomorpho-lino)phenyl)-2-(4-fluorophenyl)thiazol-4-yl)-4,4-difluorocyclohexane-carboxamide] | 3.8 nM | 3330 nM
15 | N#Cc1ccccc1-c1nc([C@@H]2CCCC[C@H]2C(=O)NC2(C#N)CC2)c(-c2ccc(N3CCS(=O)(=O)CC3)cc2)s1 [Example 79, (1R,2R)-N-(1-cyanocyclopropyl)-2-(2-(2-cyanophenyl)-5-(4-(1,1-dioxidothiomorpho-lino)phenyl)thiazol-4-yl)cyclohexane-carboxamide] | 9.3 nM | 5750 nM
16 | N#CC1(NC(=O)[C@@H]2CCCC[C@H]2c2nc(-c3ncc(F)cn3)sc2-c2ccc(N3CCS(=O)(=O)CC3)cc2)CC1 [Example 80, (1R,2R)-N-(1-cyanocyclopropyl)-2-(5-(4-(1,1-dioxidothiomorpho-lino)phenyl)-2-(5-fluoropyrimidin-2-yl)thiazol-4-yl)cyclohexane-carboxamide] | 31.6 nM | ≥ 10000 nM
17 | COc1cnc(-c2nc([C@@H]3CCCC[C@H]3C(=O)NC3(C#N)CC3)c(-c3ccc(N4CCS(=O)(=O)CC4)cc3)s2)nc1 [Example 81, (1R,2R)-N-(1-cyanocyclopropyl)-2-(5-(4-(1,1-dioxidothiomorpho-lino)phenyl)-2-(5-methoxypyrimidin-2-yl)thiazol-4-yl)cyclohexane-carboxamide] | 48.4 nM | ≥ 10000 nM
18 | Cc1cnc(-c2nc([C@@H]3CCCC[C@H]3C(=O)NC3(C#N)CC3)c(-c3ccc(N4CCS(=O)(=O)CC4)cc3)s2)nc1 [Example 82, (1R,2R)-N-(1-cyanocyclopropyl)-2-(5-(4-(1,1-dioxidothiomorpho-lino)phenyl)-2-(5-methylpyrimidin-2-yl)thiazol-4-yl)cyclohexane-carboxamide] | 46.4 nM | ≥ 10000 nM
19 | Cc1ccc(-c2nc([C@@H]3CCCC[C@H]3C(=O)NC3(C#N)CC3)c(-c3ccc(N4CCS(=O)(=O)CC4)cc3)s2)nn1 [Example 83, (1R,2R)-N-(1-cyanocyclopropyl)-2-(5-(4-(1,1-dioxidothiomorpho-lino)phenyl)-2-(6-methylpyridazin-3-yl)thiazol-4-yl)cyclohexane-carboxamide] | 1.4 nM | 1110 nM
20 | N#Cc1ccc(-c2nc([C@@H]3CCCC[C@H]3C(=O)NC3(C#N)CC3)c(-c3ccc(N4CCS(=O)(=O)CC4)cc3)s2)cc1 [Example 84, (1R,2R)-N-(1-cyanocyclopropyl)-2-(2-(4-cyanophenyl)-5-(4-(1,1-dioxidothiomorpho-lino)phenyl)thiazol-4-yl)cyclohexane-carboxamide] | 0.7 nM | 1410 nM
21 | CS(=O)(=O)C1CN(c2ccc(-c3sc(-c4cncc(Cl)c4)nc3[C@@H]3CCCC[C@H]3C(=O)NC3(C#N)CC3)cc2)C1 [Example 85, (1R,2R)-2-(2-(5-chloropyridin-3-yl)-5-(4-(3-(methylsulfonyl)azetidin-1-yl)phenyl)thiazol-4-yl)-N-(1-cyanocyclopropyl) cyclohexanecarbox-amide] | 2.1 nM | 1090 nM
22 | COc1ccc(-c2nc([C@@H]3CCCC[C@H]3C(=O)NC3(C#N)CC3)c(-c3ccc(N4CCS(=O)(=O)CC4)cc3)s2)cn1 [Example 86, (1R,2R)-N-(1-cyanocyclopropyl)-2-(5-(4-(1,1-dioxidothiomorpho-lino)phenyl)-2-(6-methoxypyridin-3-yl)thiazol-4-yl)cyclohexane-carboxamide] | 1.8 nM | 3330 nM
